# Measured values: patent US20210333284A1, “METHODS AND MATERIALS FOR LARGE-SCALE ASSESSMENT OF LIGAND BINDING SELECTIVITY OF G-QUADRUPLEX RECOGNITION USING CUSTOM G4 MICROARRAYS” (Purdue Research Foundation, priority 2020, published 2021)
# Experiments:
# [1] = tested on: MYC G4 flanking variants 5′-NNGGGTGGGGAGGGTGGGNN-3′; assay: G4 microarray competition with Cy5-PDS, flanking (tail) variants; design: species or system human; conditions: from reduction of Cy5-PDS binding in the presence of competitor
# Source text: Whether the microarray platform could be used to reveal the G4-binding specificity of unlabeled molecules via a competition with Cy5-PDS binding was explored. Three example molecules, unlabeled PDS, TMPyP4 (a planar molecule that nonspecifically binds G4 structures^14), and DC-34 (a molecule that selectively binds the MYC G4^15) were examined. […] The binding of unlabeled DC-34 was examined (FIG. 4). There appear to be no features that are better-bound in the presence of DC-34. […] This is consistent with the observation that DC-34 binds the top and bottom surfaces of the G4 and makes specific contacts with purines in the tail sequences.^15 The general properties of features in which DC-34 reduced binding of Cy5-PDS (ratio of PDS/PDS+DC-34) were also examined. […]
# DNA Microarray Binding Experiments DNA microarray experiments were performed and analyzed as described previously. […]
# (§1) Data Processing and Analysis Molecule-bound microarrays were scanned with an Agilent G5761A SureScan Dx Microarray Scanner System to detect Cy5 signal at two laser settings (30 and 100 PMT). Spot intensities from microarray images were extracted using Agilent Feature Extraction Software and are reported as raw fluorescence intensities. […]
# [2] = tested on: MYC_14/23T G4; assay: G4 microarray competition with Cy5-PDS, MYC_14/23T; type: binding, human; conditions: MYC_14/23T G4, 1 μM BMVC and 1 μM Cy5-PDS
# Description: Custom G4 microarrays have been designed that contain a total of 19,249 G4 DNA sequences [31, the entirety of disclosure of which, including the supplemental information, is incorporated herein by reference]. The G4 microarrays were created by covalently attaching thousands of unique G4-forming DNA 60-mers to a glass surface. Pyridostatin (PDS) is a known G4-interactive compound. […] To test the binding selectivity of BMVC, competition experiments using custom G4 microarrays were performed. The addition of potassium-containing solution to G4-forming oligonucleotides induced G4 formation. […] After washing to remove the unbound Cy5-PDS and BMVC, the fluorescence intensities of Cy5-PDS bound to DNA oligonucleotides were detected using a fluorescence scanner. The binding selectivity of BMVC to different G4 structures was assessed by measuring the relative fluorescence intensity reduction of Cy5-PDS as BMVC concentration increased.
# To determine the G4-binding selectivity of BMVC, the BMVC binding to known G4 structures was examined, including 7 well-studied MYC promoter G4 sequences, 15 other oncogene promoter G4 sequences, and 3 human telomeric G4 sequences (TABLE 4). BMVC competes with the binding of Cy5-PDS to most G4 sequences in a dose-dependent manner as indicated by reduced fluorescence intensities (FIG. 8a). […]
# [3] = tested on: PDGF-A_Pu48, MYB, Bcl-2_P1G4 and Bcl2_55G G4 sequences; assay: G4 microarray competition with Cy5-PDS, other oncogene promoter G4s; type: binding, human
# Description: Custom G4 microarrays have been designed that contain a total of 19,249 G4 DNA sequences [31, the entirety of disclosure of which, including the supplemental information, is incorporated herein by reference]. The G4 microarrays were created by covalently attaching thousands of unique G4-forming DNA 60-mers to a glass surface. Pyridostatin (PDS) is a known G4-interactive compound. […] To test the binding selectivity of BMVC, competition experiments using custom G4 microarrays were performed. The addition of potassium-containing solution to G4-forming oligonucleotides induced G4 formation. Subsequently, the microarrays were incubated with 1 μM Cy5-PDS in the absence or presence of 1 μM, 3 μM, or 10 μM of the unlabeled BMVC molecule. After washing to remove the unbound Cy5-PDS and BMVC, the fluorescence intensities of Cy5-PDS bound to DNA oligonucleotides were detected using a fluorescence scanner. The binding selectivity of BMVC to different G4 structures was assessed by measuring the relative fluorescence intensity reduction of Cy5-PDS as BMVC concentration increased.
# To determine the G4-binding selectivity of BMVC, the BMVC binding to known G4 structures was examined, including 7 well-studied MYC promoter G4 sequences, 15 other oncogene promoter G4 sequences, and 3 human telomeric G4 sequences (TABLE 4). BMVC competes with the binding of Cy5-PDS to most G4 sequences in a dose-dependent manner as indicated by reduced fluorescence intensities (FIG. 8a).
# DNA Microarray Binding Experiments DNA microarray experiments were performed and analyzed as described previously. Microarrays were preincubated with a pH 7.4 phosphate buffer solution with 100 mM potassium for 1 h at room temperature to induce G4 formation. […]
# as §1
compound,measurement,setting,value
"C[n+]1ccc(/C=C/c2ccc3[nH]c4ccc(/C=C/c5cc[n+](C)cc5)cc4c3c2)cc1.[I-].[I-] [BMVC, 3,6-Bis(1-methyl-4-vinylpyridinium) carbazole diiodide]",flanking sequence preference of competitor,[1],strongly prefers the MYC G4 with the 3′-flanking T
same,reduction of Cy5-PDS binding among all parallel G4s,[2],largest reduction
same,binding to Bcl2_55G,[3]; competition with Cy5-PDS,good binding
same,binding to Bcl-2_P1G4,"[3]; competition with Cy5-PDS, compared with Bcl2_55G",markedly weaker
same,binding to PDGF-A_Pu48 and MYB sequences relative to Cy5-PDS,[3]; equimolar competition,much weaker
